Like-named read-outs stand apart in the source and are kept apart here. Square brackets hold non-standard residues; d marks the D form. Ends that are not written are not given here. Peptide text beside a SMILES is read from it.
Tests used:
human CMKLR1 = molecular target: T1, human CMKLR1 (Homo sapiens, UniProt Q99788); assay: Ca2+ mobilization (CellLux imaging) agonist assay in HEK293A cells expressing CMKLR1 and Gα15; type: cell-based
T1 construct: host or cells: HEK293A (Invitrogen), stably expressing human Gα15
T1 sequence (Q99788 1-373): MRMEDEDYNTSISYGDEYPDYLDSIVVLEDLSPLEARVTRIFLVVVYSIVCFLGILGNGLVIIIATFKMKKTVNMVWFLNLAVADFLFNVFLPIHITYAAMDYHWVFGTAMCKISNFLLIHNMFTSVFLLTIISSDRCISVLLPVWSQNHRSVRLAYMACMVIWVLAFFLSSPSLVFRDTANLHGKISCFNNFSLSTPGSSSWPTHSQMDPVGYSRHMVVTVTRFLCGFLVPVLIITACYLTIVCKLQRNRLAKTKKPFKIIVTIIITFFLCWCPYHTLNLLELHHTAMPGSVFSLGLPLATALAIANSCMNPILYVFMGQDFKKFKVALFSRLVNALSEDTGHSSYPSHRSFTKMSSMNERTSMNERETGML
How it was run: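 HEK293A cells co-expressing CMKLR1 and Gα15 were loaded with FLUO4-AM, and peptides were added robotically in C1 buffer (HEPES pH 7.4, 2 mM CaCl2) with 0.1% BSA. Fluorescence changes were read in duplicate wells, buffer-subtracted and normalized to background. EC50 came from amplitude–concentration plots.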

[1] = In vitro peptide stability in human serum (RP-HPLC); conditions: for half-life at 50 µg/mL: human, human serum, 25% (v/v) in RPMI; for t1/2: metabolic stability in human serum
[2] = Ca2+ mobilization, CMKLR1, decimal comma
[3] = Ca2+ mobilization, CMKLR1, decimal comma, NR where no EC50 is given, read-out: EC50

| Compound | EC50 (human CMKLR1; intracellular calcium mobilization, HEK293 cells expressing CMKLR1, mean of three independent experiments ± SD, read-out: activity: EC50 ±SD) [nM] | half-life at 50 µg/mL [1] [min] | max response (human CMKLR1; [2]) | EC50 (human CMKLR1; [3]) [nM] | t1/2 [1] [min] | max response (human CMKLR1) |
| --- | --- | --- | --- | --- | --- | --- |
| YLPGQYAFL-OH | 5.75 ± 2.56 | 27 ± 4 |  |  |  |  |
| CC(C)C[C@H](NC(=O)[C@@H]1CCCN1C(=O)[C@@H]1CCCN1)C(=O)N[C@H](Cc1c[nH]c2ccccc12)C(=O)N[C@@H](CCC(N)=O)C(=O)N[C@@H](Cc1ccc(O)cc1)C(=O)N[C@@H](C)C(=O)N[C@H](CC(=O)O)C(=O)N[C@H](CO)C(=O)O [compound 153] (H-PPL[dW]QYA[dD][dS]-OH; N-terminus assumed) |  | 86 | 1,31 DF/F0 | 313 |  |  |
| C[C@H](NC(=O)[C@H](Cc1ccc(O)cc1)NC(=O)[C@H](CCC(N)=O)NC(=O)CNC(=O)[C@@H]1CCCN1C(=O)[C@H](CCC(=O)O)NC(=O)[C@@H](N)Cc1ccc(O)cc1)C(=O)N[C@@H](Cc1ccccc1)C(=O)N[C@H](CO)C(=O)O [compound 94] (H-YEPGQYAF[dS]-OH; N-terminus assumed) |  | 47 | 1,56 DF/F0 | 76.2 |  |  |
| CC(C)C[C@H](NC(=O)[C@H](N)Cc1ccc(O)cc1)C(=O)N1CCC[C@H]1C(=O)NCC(=O)N[C@H](Cc1c[nH]c2ccccc12)C(=O)N[C@@H](Cc1ccc(O)cc1)C(=O)N[C@@H](C)C(=O)N[C@@H](Cc1ccccc1)C(=O)N[C@H](Cc1ccccc1)C(=O)O [compound 142] (H-[dY]LPG[dW]YAF[dF]-OH; N-terminus assumed) |  | 421 | 1,55 DF/F0 | 128 |  |  |
| NC(=O)CC[C@H](NC(=O)CNC(=O)[C@@H]1CCCN1C(=O)[C@@H](Cc1ccc(O)cc1)NC(=O)[C@H](Cc1ccc(O)cc1)NC(=O)[C@H](CCC(N)=O)NC(=O)[C@H](N)Cc1ccccc1)C(=O)N[C@@H](Cc1ccc(O)cc1)C(=O)N[C@@H](Cc1ccc(O)cc1)C(=O)O [compound 137] (H-[dF]QY[dY]PGQYY-OH; N-terminus assumed) |  | 108 | 1,42 DF/F0 | 103 |  |  |
| FLPGQPYFL-OH [compound 65] |  | 32 | 0,91 DF/F0 | 713 |  |  |
| C[C@H](NC(=O)[C@H](Cc1ccccc1)NC(=O)[C@H](C)NC(=O)[C@@H](N)Cc1ccccc1)C(=O)N[C@@H](Cc1ccccc1)C(=O)N[C@H](CO)C(=O)N[C@@H](Cc1ccccc1)C(=O)N[C@@H](C)C(=O)N[C@@H](Cc1ccc(O)cc1)C(=O)O [compound 117] (H-FAFAF[dS]FAY-OH; N-terminus assumed) |  | 26 | 0,87 DF/F0 | 4450 |  |  |
| CC(C)C[C@@H](NC(=O)[C@H](Cc1c[nH]cn1)NC(=O)[C@H](N)CO)C(=O)NCC(=O)N[C@@H](CCC(N)=O)C(=O)N[C@@H](Cc1ccc(O)cc1)C(=O)N[C@@H](C)C(=O)N[C@@H](Cc1ccccc1)C(=O)N[C@H](Cc1ccccc1)C(=O)O [compound 140] (H-[dS]H[dL]GQYAF[dF]-OH; N-terminus assumed) |  | 612 | 1,49 DF/F0 | 105 |  |  |
| CC(C)C[C@@H](NC(=O)[C@H](Cc1c[nH]cn1)NC(=O)[C@H](N)CO)C(=O)NCC(=O)N[C@@H](CCC(N)=O)C(=O)N[C@@H](Cc1ccc(O)cc1)C(=O)N[C@@H](C)C(=O)N[C@H](CC(=O)O)C(=O)N[C@@H](CO)C(=O)O [compound 96] (H-[dS]H[dL]GQYA[dD]S-OH; N-terminus assumed) |  | 3250 | 1,63 DF/F0 | 90.5 |  |  |
| CC(C)[C@H](NC(=O)[C@@H](N)Cc1ccc(O)cc1)C(=O)N1CCC[C@H]1C(=O)NCC(=O)N[C@@H](CCC(N)=O)C(=O)N[C@@H](Cc1ccccc1)C(=O)N[C@@H](C)C(=O)N[C@@H](Cc1ccccc1)C(=O)N[C@H](Cc1ccccc1)C(=O)O [compound 35] (H-YVPGQFAF[dF]-OH; N-terminus assumed) |  |  | 0,96 DF/F0 |  | 42 |  |
| CC(C)C[C@H](NC(=O)[C@@H](N)Cc1ccccc1)C(=O)N1CCC[C@H]1C(=O)NCC(=O)N[C@@H](CCC(N)=O)C(=O)N[C@@H](Cc1ccccc1)C(=O)N[C@H](Cc1c[nH]c2ccccc12)C(=O)N[C@@H](Cc1ccccc1)C(=O)N[C@H](CO)C(=O)O [compound 89] (H-FLPGQF[dW]F[dS]-OH; N-terminus assumed) |  | 73 | 1,76 DF/F0 | 49.2 |  |  |
| PLPGQFQFK-OH [compound 70] |  | 27 | 0,43 DF/F0 | 1920 |  |  |
| C[C@H](N)C(=O)N[C@@H](Cc1ccccc1)C(=O)NCC(=O)N[C@H](Cc1ccccc1)C(=O)N[C@H](CCC(N)=O)C(=O)N[C@@H](CO)C(=O)N[C@@H](C)C(=O)N[C@@H](Cc1ccc(O)cc1)C(=O)N[C@@H](CO)C(=O)O [compound 134] (H-AFG[dF][dQ]SAYS-OH; N-terminus assumed) |  | 10 | 1,37 DF/F0 | 69.4 |  |  |
| YLPGQYLFL-OH [compound 56] |  | 19 | 0,57 DF/F0 | 114 |  |  |
| CC(C)C[C@H](NC(=O)[C@H](Cc1ccc(O)cc1)NC(=O)[C@@H](Cc1ccccc1)NC(=O)[C@@H]1CCCN1C(=O)[C@H](CC(C)C)NC(=O)[C@@H](N)Cc1ccc(O)cc1)C(=O)N1CCC[C@H]1C(=O)NCC(=O)N[C@H](Cc1ccccc1)C(=O)O [compound 145] (H-YLP[dF]YLPG[dF]-OH; N-terminus assumed) |  | 40 | 1,02 DF/F0 | 150 |  |  |
| YFPGQFAFG-OH [compound 29] |  |  |  |  | 13 | 1,01 DF/F0 |
| CC(C)[C@H](NC(=O)[C@@H](N)Cc1ccc(O)cc1)C(=O)N1CCC[C@H]1C(=O)NCC(=O)N[C@@H](CCC(N)=O)C(=O)N[C@@H](Cc1ccccc1)C(=O)N[C@@H](C)C(=O)N[C@@H](Cc1ccccc1)C(=O)N[C@H](CO)C(=O)O [compound 90] (H-YVPGQFAF[dS]-OH; N-terminus assumed) |  | 23 | 1,81 DF/F0 | 50 |  |  |
| CC(C)C[C@H](NC(=O)[C@@H](N)Cc1ccc(O)cc1)C(=O)N1CCC[C@H]1C(=O)N1CCC[C@@H]1C(=O)N1CCC[C@H]1C(=O)N[C@@H](Cc1ccc(O)cc1)C(=O)N[C@@H](C)C(=O)N[C@@H](Cc1ccccc1)C(=O)N[C@H](Cc1ccccc1)C(=O)O [compound 130] (H-YLP[dP]PYAF[dF]-OH; N-terminus assumed) |  | 215 | 1,72 DF/F0 | 43.5 |  |  |
| C[C@H](N)C(=O)N[C@@H](Cc1ccccc1)C(=O)N[C@H](CO)C(=O)N[C@@H](CCC(N)=O)C(=O)N[C@@H](Cc1ccccc1)C(=O)N[C@H](CO)C(=O)N[C@@H](C)C(=O)N[C@@H](Cc1ccccc1)C(=O)N[C@H](CO)C(=O)O [compound 106] (H-AF[dS]QF[dS]AF[dS]-OH; N-terminus assumed) |  | 110 | 1,53 DF/F0 | 697 |  |  |
| CC(C)C[C@H](N)C(=O)N[C@H](Cc1c[nH]c2ccccc12)C(=O)NCC(=O)NCC(=O)N1CCC[C@H]1C(=O)N[C@@H](Cc1ccc(O)cc1)C(=O)N[C@@H](C)C(=O)N[C@H](CC(=O)O)C(=O)N[C@@H](CO)C(=O)O [compound 131] (H-L[dW]GGPYA[dD]S-OH; N-terminus assumed) |  | 551 | 1,67 DF/F0 | 53.2 |  |  |
| PGPGQFAFF-OH [compound 59] |  | 80 | 0,9 DF/F0 | 335 |  |  |
| C[C@H](NC(=O)[C@@H](N)Cc1ccc(O)cc1)C(=O)N[C@@H](Cc1ccccc1)C(=O)N[C@H](CO)C(=O)N1CCC[C@H]1C(=O)NCC(=O)N[C@@H](CCC(N)=O)C(=O)N[C@@H](Cc1ccccc1)C(=O)N[C@H](CO)C(=O)O [compound 93] (H-YAF[dS]PGQF[dS]-OH; N-terminus assumed) |  | 81 | 1,67 DF/F0 | 64.4 |  |  |
| YLPGQGAFK-OH [compound 69] |  | 22 | 0,99 DF/F0 | 1870 |  |  |
| FLPGQYAFK-OH [compound 64] |  | 26 | 0,93 DF/F0 | 567 |  |  |
| YPPGQYAFF-OH [compound 68] |  | 54 | 0,94 DF/F0 | 1480 |  |  |

Source: publication PMC3351444, “Molecular Evolution of a Peptide GPCR Ligand Driven by Artificial Neural Networks” (PLoS ONE, 2012)
